Legend:
[1] = system: volatile fatty acid concentrations in the in vitro rumen fermentation; test: in vitro rumen fermentation, volatile fatty acids, high concentrate substrate, alfalfa hay:concentrate 1:3 (Examples 4 and 7); parameters: species or system sheep; details: for Acetic acid / Acetic:propionic / Butyric acid / Propionic acid / Total acids: hay:concentrate 1:3
Protocol: A one gram sample of substrate ground through a 1 mm screen is weighed into 100 ml. lipless beakers equipped with gas-release valves. The substrate consists of alfalfa hay containing approximately 16% protein and a concentrate containing ground corn 60.7%, alfalfa meal 17.5%, molasses 10.0%, soybean meal 5.3%, wheat bran 5.0%, trace mineralized salt 1.0%, limestone 0.5% and Vitamin D 300,000 I.U./ton, mixed in the proportion 3:1. The experimental composition is added to the substrate. 25 ml. of filtered rumen fluid obtained from fasted sheep maintained on feed the same as the above mentioned substrate and 25 ml. of McDougal's buffer solution serve as the inoculum. The buffer solution is as follows:
The fermentation mixture is flushed with carbon dioxide and the vessel is capped with a gas release valve. The fermentation vessel (beaker) is placed in a water bath and incubated at 39° C.±1° for six hours. The sample is mixed every hour by shaking the beaker.
At the end of the 6-hour fermentation period the sample is strained through 4 layers of cheesecloth into a sample bottle containing 1 ml. saturated solution of mercuric chloride. The sample is frozen immediately until analyzed for the volatile fatty acids (VFA) (mg/100 ml.). Prior to analysis, each sample is acidified with 30% phosphoric acid and then analyzed by gas chromatography using a column containing 5% nonylphenoxypolyoxyethylene ethanol plus 0.5% phosphoric acid on 100-120 mesh Gas Chrom S. The acids determined are acetic, propionic, butyric, isobutyric, valeric and isovaleric acids. Total VFA is considered as the addition of these acids. The ratio of acetic: propionic (A:P) is obtained by dividing the concentration of acetic acid by that of propionic acid.
The procedure is described in Example 3. In this example, however, the substrate consisted of alfalfa hay and concentrate in the ratio of 1:3 and inoculum was obtained from sheep fed alfalfa and concentrate in the ratio of 1:3. The concentrate (Fit-N-Fresh) is commercially available from Agway, Inc. and contains grain products, plant protein products, processed grain by-products, cane molasses, minerals, vitamins and a preservative.
The 2,2,2-trichloroethyl ester of glycine was tested in vitro in a manner similar to that described in Example 4.

[2] = system: volatile fatty acid concentrations in the rumen of fistulated wethers; test: volatile fatty acid concentrations in the rumen of fistulated wethers, 454 g concentrate and 454 g chopped mixed hay (Example 6); assay type: in vivo, sheep; details: for Acetic:propionic ratio / Other acids (%) / Propionic acid (%) / Butyric acid (%) / Acetic acid (%) / Total acids: day 7
Source text: Mature sheep (wethers) fitted with permanent rumen fistulae were used to determine the effect of L-phenylalanine, 2,2,2-trichloroethyl ester on volatile fatty acid concentrations in vivo (3 wethers per treatment). The animals were individually penned and fed 227 g. of concentrate (described in Example 3) and 680 g. of alfalfa hay once daily. The test compound was admixed with the concentrate. The sheep were medicated for 7 days. Samples for analysis were obtained before (Day 0) and after treatment (Day 7) approximately 6 hours after feeding.
An experiment similar to that described in Example 5 was performed except that the animals (3 per treatment) were fed 454 g. of concentrate (described in Example 3) and 454 g. of chopped mixed (grasses) hay.

[3] = system: growing lambs; test: body weight gain and feed efficiency of growing lambs (Examples 9-11); assay type: in vivo, lambs (sheep)
Protocol: A test was conducted to determine if feeding L-phenylalanine, 2,2,2-trichloroethyl ester to growing lambs was effective in improving growth and feed efficiency. Wether and ewe lambs were divided into groups of 30 lambs each. They were acclimated to their pens for 2 weeks prior to treatment.
The feed supplied to the animals had the following composition
The test compound in an amount of 0.0055% (50 g/ton) was admixed with the above feed composition.
Body weights and feed consumption were recorded at 0, 2, 4 and 6 weeks. Feed efficiencies were calculated.
The test procedure of Example 9 was followed to test the growth effect and feed efficiency of glycine 2,2,2-trichloroethyl ester on growing lambs. The feed composition of Example 9 was used but contained glycine 2,2,2-trichloroethyl ester in an amount of 0.0044% (40 g/ton). There were 44 lambs in the control group receiving the feed composition without additive and 42 lambs receiving the feed composition containing the amino acid ester.
The test procedure of Example 9 was followed to test the growth effect and feed efficiency of L-phenylalanine 2,2,2-trichloroethyl ester on growing lambs. The feed composition of Example 9 was used but contained 0.0088% (80 g/ton) of this amino acid ester. There were 59 lambs in the control group fed the feed without additive and 58 lambs in the group fed the feed composition containing the test compound.

With Br.N[C@@H](Cc1ccccc1)C(=O)OCC(Cl)(Cl)Cl [L-Phenylalanine 2,2,2-trichloroethyl ester, hydrobromide] the Acetic acid ([1]; 0.02 mg/ml) was 80 % of control, the “Acetic:propionic” value ([1]; 0.02 mg/ml) was 69 % of control and the Butyric acid ([1]; 0.02 mg/ml) was 114 % of control. The Propionic acid ([1]; 0.02 mg/ml) was 116 % of control, the Total acids ([1]; 0.02 mg/ml) was 95 % of control and the Acetic acid ([1]; 0.1 mg/ml) was 76 % of control. The “Acetic:propionic” value ([1]; 0.1 mg/ml) was 66 % of control, the Butyric acid ([1]; 0.1 mg/ml) was 113 % of control and the Propionic acid ([1]; 0.1 mg/ml) was 115 % of control. For the same compound, the Total acids ([1]; 0.1 mg/ml) was 92 % of control, the Acetic acid ([1]; 0.2 mg/ml) was 76 % of control and the “Acetic:propionic” value ([1]; 0.2 mg/ml) was 65 % of control. The Butyric acid ([1]; 0.2 mg/ml) was 113 % of control, the Propionic acid ([1]; 0.2 mg/ml) was 116 % of control and the Total acids ([1]; 0.2 mg/ml) was 92 % of control. The Acetic acid ([1]; 0.4 mg/ml) was 79 % of control, the “Acetic:propionic” value ([1]; 0.4 mg/ml) was 65 % of control and the Butyric acid ([1]; 0.4 mg/ml) was 116 % of control. For the same compound, the Propionic acid ([1]; 0.4 mg/ml) was 120 % of control, the Total acids ([1]; 0.4 mg/ml) was 96 % of control and the Acetic acid ([1]; 1.0 mg/ml) was 76 % of control. For the same compound, the “Acetic:propionic” value ([1]; 1.0 mg/ml) was 64 % of control, the Butyric acid ([1]; 1.0 mg/ml) was 112 % of control and the Propionic acid ([1]; 1.0 mg/ml) was 119 % of control. The Total acids ([1]; 1.0 mg/ml) was 92 % of control, the “effect on acetic:propionic ratio (in words)” value ([1]; high concentrate substrate) was “decreasing the acetic:propionic ratio” and the “effect on propionic acid concentration (in words)” value ([1]; high concentrate substrate) was “effective in increasing the propionic acid concentration”. For the same compound, the “Acetic:propionic ratio” value ([2]; 200 mg/head/day, pre-treatment 3.38, control day 7 3.54) was 2.65, the “Other acids (%)” value ([2]; 200 mg/head/day, pre-treatment 5.2, control day 7 6.6) was 8.2% and the “Propionic acid (%)” value ([2]; 200 mg/head/day, pre-treatment 17.5, control day 7 16.2) was 19.0%. For the same compound, the “Butyric acid (%)” value ([2]; 200 mg/head/day, pre-treatment 18.4, control day 7 20.0) was 22.5%, the “Acetic acid (%)” value ([2]; 200 mg/head/day, pre-treatment 58.8, control day 7 57.3) was 50.3% and the Total acids ([2]; 200 mg/head/day, pre-treatment 731, control day 7 687) was 663 mg/100 ml. For the same compound, the “Acetic:propionic ratio” value ([2]; 500 mg/head/day, pre-treatment 3.43, control day 7 3.54) was 2.18, the “Other acids (%)” value ([2]; 500 mg/head/day, pre-treatment 6.7, control day 7 6.6) was 9.8% and the “Propionic acid (%)” value ([2]; 500 mg/head/day, pre-treatment 16.8, control day 7 16.2) was 21.1%. For the same compound, the “Butyric acid (%)” value ([2]; 500 mg/head/day, pre-treatment 19.0, control day 7 20.0) was 23.5%, the “Acetic acid (%)” value ([2]; 500 mg/head/day, pre-treatment 57.5, control day 7 57.3) was 45.7% and the Total acids ([2]; 500 mg/head/day, pre-treatment 851, control day 7 687) was 734 mg/100 ml. For the same compound, the “effect on acetic:propionic ratio (in words)” value ([2]; fistulated wethers, 7 days) was “decreasing the acetic:propionic ratio”, the “effect on proportion of propionic acid (in words)” value ([2]; fistulated wethers, 7 days) was “effective in increasing the proportion of propionic acid” and the Body weight gain ([3]; 0.0055% (50 g/ton) in feed, 0-2 wks., control 2.47) was 2.97 kg. For the same compound, the Body weight gain ([3]; 0.0055% (50 g/ton) in feed, 0-4 wks., control 5.80) was 5.82 kg, the Feed efficiency ([3]; 0.0055% (50 g/ton) in feed, 0-6 wks., control 0.190) was 0.196 gain/unit of feed and the Body weight gain ([3]; 0.0055% (50 g/ton) in feed, 0-6 wks., control 8.51) was 9.08 kg. The “effect on feed efficiency (in words)” value ([3]; 0.0055% (50 g/ton) in the feed) was “improving feed efficiency”, the “effect on gains (in words)” value ([3]; 0.0055% (50 g/ton) in the feed) was “effective in increasing gains” and the Weight gain ([3]; 0.0088% (80 g/ton) in feed, 0-2 wks, control 1.50) was 1.49 kg. It also gave a Weight gain ([3]; 0.0088% (80 g/ton) in feed, 0-4 wks, control 4.44) of 4.63 kg, a Feed efficiency ([3]; 0.0088% (80 g/ton) in feed, 0-6 wks, control 0.160) of 0.168 gain/feed and a Weight gain ([3]; 0.0088% (80 g/ton) in feed, 0-6 wks, control 7.56) of 7.81 kg.
